The values below come from ChEMBL document CHEMBL1955722, “1,2,4-Oxadiazoles: a new class of anti-prostate cancer agents” (Bioorg Med Chem Lett, 2012).

By IC50 is commonly meant the point on the concentration scale where inhibition reaches its midpoint. Low readings indicate greater potency in that assay, high ones weaker potency in that assay.

Data set [1] has as its system DU-145. Nature of the data set: Cytotoxicity against human androgen-independent DU145 cells by MTT assay. It is filed as functional, cell-based. For orientation: Formazan colour is commonly taken as a measure of viable cells.
Data set [2] has as its system PC-3. Nature of the data set: Cytotoxicity against human androgen-independent PC3 cells by MTT assay. It is filed as functional, cell-based.
Data set [3] concerns LNCaP. Nature of the data set: Cytotoxicity against human androgen-dependent LNCAP cells by MTT assay. Type of data set: functional, cell-based.
The subject of data set [4] is DU-145. Nature of the data set: Cytotoxicity against human androgen-independent DU145 cells at 1 uM by MTT assay. It is filed as functional.
Data set [5] relates to PC-3. The data set is described as follows: Cytotoxicity against human androgen-independent PC3 cells at 1 uM by MTT assay. Type of data set: functional.
The subject of data set [6] is LNCaP. Nature of the data set: Cytotoxicity against human androgen-dependent LNCAP cells at 1 uM by MTT assay. It is filed as functional.
The next data set concerns MCF-10A. The data set is described as follows: Cytotoxicity against human MCF10A cells at 1 uM by MTT assay. It is filed as cell-based.
Data set [7] deals with DU-145. The data set is described as follows: Ratio of doxorubicin IC50 to compound IC50 for human androgen-independent DU145 cells.

Take `CC(O)(CS(=O)(=O)c1ccccc1)c1nc(-c2ccc(Cl)cc2)no1` (centres undefined): in the data set with DU-145 [1], the IC50 was over 100 µM.
Still for that read-out and setting: the same measure for `CC(O)(CS(=O)(=O)c1ccc(F)cc1)c1nc(-c2ccccc2)no1` (centres undefined): over 100 µM.
In turn, `CC(O)(CS(=O)(=O)c1ccc(Br)cc1)c1nc(-c2ccc(Cl)cc2)no1` (centres undefined) had an IC50 in the data set on DU-145 [1] of over 100 µM.
Same read-out and setting: the result for `CC(O)(CS(=O)(=O)c1ccc(Br)cc1)c1nc(-c2ccc(F)c(Cl)c2)no1` (centres undefined) reads 75 µM; that for `CC(O)(CS(=O)(=O)c1ccc(Cl)cc1)c1nc(-c2ccc(F)c(Cl)c2)no1` (centres undefined), 35.5 µM.
On to `CC(O)(CS(=O)(=O)c1ccc(Cl)cc1)c1nc(-c2ccc(Cl)cc2)no1` (centres undefined), for which, in the data set with DU-145 [1], the IC50 was over 100 µM.
Turning to `COc1cccc2c1C(=O)c1c(O)c3c(c(O)c1C2=O)C[C@@](O)(C(=O)CO)C[C@@H]3O[C@H]1C[C@H](N)[C@H](O)[C@H](C)O1` [DOXORUBICIN], the results for the half-maximal inhibitory concentration (IC50) with DU-145 [1] and with PC-3 [2] were 5.8 µM and 1.05 µM, respectively.
Regarding `CC(O)(CSc1ccccc1)c1nc(-c2ccc([N+](=O)[O-])c(C(F)(F)F)c2)no1` (centres undefined), the IC50 is 3 µM in the data set with DU-145 [1], 3.5 µM with PC-3 [2] and 9.67 µM in the data set on LNCaP [3]. Besides, the Activity worked out at 49.62% in the data set on DU-145 [4], 49.02% in the data set on PC-3 [5], 31.1% in the data set on LNCaP [6] and 12.62% in the data set with MCF-10A.
For the molecule `CC(O)(CSc1ccc(Cl)cc1)c1nc(-c2ccc([N+](=O)[O-])c(C(F)(F)F)c2)no1` (centres undefined), the IC50 with DU-145 [1] was 1.3 µM; in the data set with PC-3 [2], 3 µM; in the data set with LNCaP [3] it was over 100 µM. In addition, the Activity in the data set with DU-145 [4] stood at 48.93%; in the data set on PC-3 [5], 39.61%; in the data set on LNCaP [6], 28.93%; in the data set on MCF-10A, 10.35%.
Consider `CC(O)(CS(=O)(=O)c1ccc(Cl)cc1)c1nc(-c2ccc([N+](=O)[O-])c(C(F)(F)F)c2)no1` (centres undefined), for which inhibition with DU-145 [1] was half-maximal at 91 µM (IC50).
Take `CC(O)(CSc1ccc(Br)cc1)c1nc(-c2ccc([N+](=O)[O-])c(C(F)(F)F)c2)no1` (centres undefined): the results for the IC50 with DU-145 [1], in the data set on PC-3 [2] and with LNCaP [3] were 1.6 µM, 51 µM and 40 µM, respectively. In addition, the Activity in the data set with DU-145 [4] was determined as 48.71%; with PC-3 [5], 31.77%; in the data set on LNCaP [6], 27.45%; in the data set with MCF-10A, 10.55%.
Take `CC(O)(CS(=O)(=O)c1ccc(F)cc1)C(=O)Nc1ccc(C#N)c(C(F)(F)F)c1` (centres undefined) [BICALUTAMIDE]: the half-inhibitory concentration (IC50) in the data set on DU-145 [1] was determined as 64 µM; in the data set with PC-3 [2], 77 µM; in the data set with LNCaP [3] it was 1.71 µM.
In the data set with DU-145 [1], `CC(O)(CS(=O)(=O)c1ccccc1)c1nc(-c2ccc(F)c(Cl)c2)no1` (centres undefined) returned an IC50 of over 100 µM.
On to `CC(O)(CSc1ccc(Cl)cc1)c1nc(-c2ccccc2)no1` (centres undefined), for which the half-inhibitory concentration (IC50) with DU-145 [1] was 70.7 µM.
In the data set with DU-145 [1], `CC(O)(CSc1ccc(Br)cc1)c1nc(-c2ccc(F)c(Cl)c2)no1` (centres undefined) came in with an IC50 of 8.8 µM.
As for `CC(O)(CS(=O)(=O)c1ccc(Br)cc1)c1nc(-c2ccccc2)no1` (centres undefined), in the data set on DU-145 [1], the half-maximal inhibitory concentration (IC50) is over 100 µM.
As for `CC(O)(CSc1ccc(F)cc1)c1nc(-c2ccc(F)c(Cl)c2)no1` (centres undefined), the values for the half-inhibitory concentration (IC50) with DU-145 [1], in the data set on PC-3 [2] and with LNCaP [3] were 2.9 µM, 11.5 µM and over 100 µM, respectively. Moreover, the Activity in the data set on DU-145 [4] is reported as 47.84%; in the data set on PC-3 [5] it was 40.77%; in the data set with LNCaP [6], 32.86%; in the data set with MCF-10A, 12.44%.
As to `CC(O)(CSc1ccccc1)c1nc(-c2ccccc2)no1` (centres undefined), the IC50 in the data set on DU-145 [1] is over 100 µM.
Still for that read-out and setting: the result for `CC(O)(CS(=O)(=O)c1ccc(F)cc1)c1nc(-c2ccc(F)c(Cl)c2)no1` (centres undefined) reads over 100 µM; that for `CC(O)(CSc1ccccc1)c1nc(-c2ccc(F)c(Cl)c2)no1` (centres undefined), 5.5 µM.
The same measure, in the same setting: the same measure for `CC(O)(CS(=O)(=O)c1ccc(F)cc1)c1nc(-c2ccc([N+](=O)[O-])c(C(F)(F)F)c2)no1` (centres undefined): over 100 µM.
Turning to `CC(O)(CSc1ccc(Br)cc1)c1nc(-c2ccc(Cl)cc2)no1` (centres undefined), in the data set on DU-145 [1], the IC50 came to 6.5 µM.
For `CC(O)(CS(=O)(=O)c1ccccc1)c1nc(-c2ccccc2)no1` (centres undefined), in the data set on DU-145 [1], the IC50 was over 100 µM.
As for `CC(O)(CS(=O)(=O)c1ccc(Br)cc1)c1nc(-c2ccc([N+](=O)[O-])c(C(F)(F)F)c2)no1` (centres undefined), the concentration for half-maximal inhibition (IC50) with DU-145 [1] was over 100 µM.
Regarding `CC(O)(CSc1ccc(F)cc1)c1nc(-c2ccc([N+](=O)[O-])c(C(F)(F)F)c2)no1` (centres undefined), the IC50 worked out at 5.1 µM with DU-145 [1], 5.5 µM in the data set on PC-3 [2] and 8.15 µM in the data set with LNCaP [3]. The Activity in the data set on DU-145 [4] was determined as 47.28%; with PC-3 [5], 46.89%; in the data set with LNCaP [6], 26.88%; in the data set on MCF-10A, 11.35%.
In the case of `CC(O)(CSc1ccc(Cl)cc1)c1nc(-c2ccc(F)c(Cl)c2)no1` (centres undefined), the IC50 with DU-145 [1] is 0.5 µM; in the data set with PC-3 [2], 10 µM; in the data set on LNCaP [3], 26.4 µM. The Activity worked out at 68.41% in the data set with DU-145 [4], 44.39% with PC-3 [5], 33.85% with LNCaP [6] and 10.62% with MCF-10A. Besides, the “Ratio IC50” value in the data set on DU-145 [7] is 11.6.
`CC(O)(CSc1ccc(Cl)cc1)c1nc(-c2ccc(Cl)cc2)no1` (centres undefined) showed an IC50 with DU-145 [1] of 14.5 µM.
`CC(O)(CSc1ccccc1)c1nc(-c2ccc(Cl)cc2)no1` (centres undefined) yielded an IC50 with DU-145 [1] of 4.5 µM.
For the molecule `CC(O)(CSc1ccc(Br)cc1)c1nc(-c2ccccc2)no1` (centres undefined), the concentration for half-maximal inhibition (IC50) with DU-145 [1] is over 100 µM.
In the case of `CC(O)(CSc1ccc(F)cc1)c1nc(-c2ccccc2)no1` (centres undefined), the IC50 in the data set on DU-145 [1] was over 100 µM.
The same measure, in the same setting: the result for `CC(O)(CS(=O)(=O)c1ccc(F)cc1)c1nc(-c2ccc(Cl)cc2)no1` (centres undefined) reads over 100 µM; that for `CC(O)(CS(=O)(=O)c1ccccc1)c1nc(-c2ccc([N+](=O)[O-])c(C(F)(F)F)c2)no1` (centres undefined), over 100 µM; that for `CC(O)(CSc1ccc(F)cc1)c1nc(-c2ccc(Cl)cc2)no1` (centres undefined), 36.2 µM.
The same measure, in the same setting: the same measure for `CC(O)(CS(=O)(=O)c1ccc(Cl)cc1)c1nc(-c2ccccc2)no1` (centres undefined): over 100 µM.
